Columns and labels:
[1] = target: Receptor-type tyrosine-protein kinase FLT3 (Homo sapiens, UniProt P36888, ITD)
[2] = target: CDK2/Cyclin A1 (Homo sapiens, UniProt P24941); type: protein-complex assay
Description: Inhibition of CDK2/Cyclin A1 (unknown origin) at 1 uM using histone H1 as substrate preincubated for 20 mins followed by 33P-ATP addition and measured after 2 hrs by filter binding method

[3] = test system: K562; assay: cells; conditions: Homo sapiens, K562, 72 h
Description: Antiproliferative activity against human K562 cells assessed as cell death measured after 72 hrs by resazurin dye based assay

[4] = test system: MV4-11; assay: cells; conditions: Homo sapiens, MV4-11, 72 h
Description: Antiproliferative activity against human MV4-11 cells assessed as cell death measured after 72 hrs by resazurin dye based assay

Chain of Receptor-type tyrosine-protein kinase FLT3 (P36888 whole entry, looked up, change not shown): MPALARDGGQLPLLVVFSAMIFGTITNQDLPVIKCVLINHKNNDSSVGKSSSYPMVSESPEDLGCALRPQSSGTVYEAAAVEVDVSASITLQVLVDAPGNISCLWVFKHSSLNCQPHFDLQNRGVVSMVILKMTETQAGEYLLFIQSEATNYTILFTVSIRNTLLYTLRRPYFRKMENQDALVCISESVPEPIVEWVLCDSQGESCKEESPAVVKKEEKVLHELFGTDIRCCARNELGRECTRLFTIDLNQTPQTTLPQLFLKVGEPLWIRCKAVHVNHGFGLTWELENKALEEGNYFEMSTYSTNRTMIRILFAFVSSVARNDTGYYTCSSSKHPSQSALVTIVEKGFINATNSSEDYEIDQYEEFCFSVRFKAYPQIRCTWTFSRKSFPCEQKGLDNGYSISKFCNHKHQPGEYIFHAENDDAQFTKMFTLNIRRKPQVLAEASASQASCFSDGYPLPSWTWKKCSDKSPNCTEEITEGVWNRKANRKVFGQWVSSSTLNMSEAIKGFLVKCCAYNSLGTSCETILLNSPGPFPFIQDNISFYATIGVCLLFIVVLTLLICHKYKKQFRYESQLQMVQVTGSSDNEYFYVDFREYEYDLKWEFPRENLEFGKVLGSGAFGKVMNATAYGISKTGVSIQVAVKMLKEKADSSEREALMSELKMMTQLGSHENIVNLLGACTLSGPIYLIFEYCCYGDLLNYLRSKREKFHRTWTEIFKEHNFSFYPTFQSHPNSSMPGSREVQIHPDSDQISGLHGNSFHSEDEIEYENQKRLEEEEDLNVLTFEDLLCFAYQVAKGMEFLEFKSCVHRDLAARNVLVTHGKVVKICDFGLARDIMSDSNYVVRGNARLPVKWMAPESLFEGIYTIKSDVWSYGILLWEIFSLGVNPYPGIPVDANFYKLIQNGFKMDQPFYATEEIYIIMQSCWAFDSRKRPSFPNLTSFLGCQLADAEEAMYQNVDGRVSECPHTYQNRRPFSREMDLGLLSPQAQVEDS

Compound | IC50 [1] | IC50 [2] | IC50 [3] | IC50 [4]
CCc1c(C)c(-c2c[nH]nc2C(F)(F)F)nc2ccc3[nH]ncc3c12 | 4 nM | 46 nM | 39100 nM | 84 nM
FC(F)(F)c1n[nH]cc1-c1nc2ccc3[nH]nc(I)c3c2c2c1CCCC2 | 21 nM | 63 nM | 40100 nM | 1260 nM
[O-][S+]1CCc2c(c(-c3c[nH]nc3C(F)(F)F)nc3ccc4[nH]ncc4c23)C1 (configuration not stated) | 17 nM | 40 nM | 8600 nM | 24 nM
NC1CCc2c(c(-c3c[nH]nc3C(F)(F)F)nc3ccc4[nH]ncc4c23)C1 (configuration not stated) | 3140 nM | 5970 nM | 66600 nM | 3500 nM
FC(F)(F)c1n[nH]cc1-c1nc2ccc3[nH]nnc3c2c2c1CCCC2 | 408 nM | 1260 nM | 87800 nM | 400 nM
CN1CCN(C2CCc3c(c(-c4c[nH]nc4C(F)(F)F)nc4ccc5[nH]ncc5c34)C2)CC1 (configuration not stated) | 141 nM | 266 nM | 19100 nM | 440 nM
FC(F)(F)c1n[nH]cc1-c1nc2ccc3sncc3c2c2c1CCCC2 | 8490 nM | 5160 nM | 56800 nM | 7350 nM
Fc1ccc(-c2cc(-c3c[nH]nc3C(F)(F)F)nc3ccc4[nH]ncc4c23)cc1Cl | > 20000 nM | 1270 nM | 65900 nM | 25700 nM
OC1CCc2c(c(-c3c[nH]nc3C(F)(F)F)nc3ccc4[nH]ncc4c23)C1 (configuration not stated) | 16 nM | 20 nM | 22500 nM | 32 nM
FC(F)(F)c1n[nH]cc1-c1nc2ccc3[nH]ncc3c2c2c1CC(N1CCOCC1)CC2 (configuration not stated) | 16 nM | 901 nM | 33000 nM | 550 nM
N#CC1CCc2c(c(-c3c[nH]nc3C(F)(F)F)nc3c(F)cc4[nH]ncc4c23)C1 (configuration not stated) | 86 nM | 111 nM | 8810 nM | 123 nM
FC(F)(F)c1n[nH]cc1-c1cc(-c2ccncc2)c2c(ccc3[nH]ncc32)n1 | 2990 nM | 823 nM | 76800 nM | 3620 nM
N#Cc1n[nH]c2ccc3nc(-c4c[nH]nc4C(F)(F)F)c4c(c3c12)CCCC4 | > 20000 nM | > 20000 nM | > 100000 nM | > 100000 nM
FC(F)(F)c1n[nH]cc1-c1nc2c(C(F)(F)F)cc3[nH]ncc3c2c2c1CCCC2 | 107 nM | 107 nM | 11100 nM | 180 nM
FC(F)(F)c1n[nH]cc1-c1nc2c(Br)cc3[nH]ncc3c2c2c1CCCC2 | > 20000 nM | 10800 nM | > 100000 nM | 36300 nM
FC(F)(F)c1n[nH]cc1-c1nc2ccc3[nH]nc(Cl)c3c2c2c1CCCCC2 | 34 nM | 1720 nM | > 100000 nM | 2010 nM
FC(F)(F)c1n[nH]cc1-c1cc(C2CC2)c2c(ccc3[nH]ncc32)n1 | 368 nM | 87 nM | 78900 nM | 980 nM

Compound | IC50 [1] | IC50 [2] | IC50 [3] | IC50 [4]
CN1CCN(CC#Cc2n[nH]c3ccc4nc(-c5c[nH]nc5C(F)(F)F)c5c(c4c23)CCCC5)CC1 | 18 nM | 10000 nM | 24800 nM | 459 nM
CCOC(=O)C1CCc2c(c(-c3c[nH]nc3C(F)(F)F)nc3ccc4[nH]ncc4c23)C1 (configuration not stated) | 118 nM | 111 nM | 6700 nM | 37 nM
O=C(O)C1CCc2c(c(-c3c[nH]nc3C(F)(F)F)nc3ccc4[nH]ncc4c23)C1 (configuration not stated) | 563 nM | 1440 nM | > 100000 nM | 20000 nM
O=S1(=O)CCc2c(c(-c3c[nH]nc3C(F)(F)F)nc3ccc4[nH]ncc4c23)C1 | 799 nM | 231 nM | > 100000 nM | 765 nM
Cc1n[nH]c2ccc3nc(-c4c[nH]nc4C(F)(F)F)c4c(c3c12)CCC(N)C4 (configuration not stated) | 211 nM | 640 nM | 53800 nM | 319 nM
FC(F)(F)c1n[nH]cc1-c1nc2ccc3[nH]nc(Br)c3c2c2c1CCCC2 | 3 nM | 325 nM | 28900 nM | 544 nM
FC(F)(F)c1n[nH]cc1-c1nc2ccc3[nH]nc(Cl)c3c2c2c1CCCC2 | 41 nM | 2320 nM | > 100000 nM | 2490 nM
FC(F)(F)c1n[nH]cc1-c1nc2ccc3[nH]ncc3c2c2c1CC(C(F)(F)F)CC2 (configuration not stated) | 126 nM | 139 nM | 8100 nM | 14 nM
CCc1cnn2c(NCc3ccc[n+]([O-])c3)cc(N3CCCC[C@H]3CCO)nc12 [DINACICLIB] | > 2000 nM |  | 13 nM | 7 nM
FC(F)(F)c1n[nH]cc1-c1nc2c(N3CCCCC3)cc3[nH]ncc3c2c2c1CCCC2 | 1250 nM | 5740 nM | 20300 nM | 2390 nM
CC(=O)NC1CCc2c(c(-c3c[nH]nc3C(F)(F)F)nc3ccc4[nH]ncc4c23)C1 (configuration not stated) | 20 nM | 320 nM | > 100000 nM | 920 nM
NCC1CCc2c(c(-c3c[nH]nc3C(F)(F)F)nc3c(F)cc4[nH]ncc4c23)C1 (configuration not stated) | 19 nM | 58 nM | 16000 nM | 740 nM
Fc1n[nH]c2ccc3nc(-c4c[nH]nc4C(F)(F)F)c4c(c3c12)CCCC4 | 31 nM | 272 nM | 31200 nM | 660 nM
Fc1cc(F)cc(-c2cc(-c3c[nH]nc3C(F)(F)F)nc3ccc4[nH]ncc4c23)c1 | > 20000 nM | 469 nM | > 100000 nM | 52500 nM
Cc1n[nH]c2ccc3nc(-c4c[nH]nc4C(F)(F)F)c4c(c3c12)CCC(C#N)C4 (configuration not stated) | 15 nM | 333 nM | 9940 nM | 12 nM
FC(F)(F)c1ccc(-c2cc(-c3c[nH]nc3C(F)(F)F)nc3ccc4[nH]ncc4c23)cc1 | > 20000 nM | 8240 nM | > 100000 nM | > 100000 nM

Next, values leading:

IC50 [1] | IC50 [2] | IC50 [3] | IC50 [4] | Compound
212 nM | 88 nM | 11100 nM | 610 nM | CC(C)c1n[nH]cc1-c1nc2ccc3[nH]ncc3c2c2c1CCCC2
194 nM | 107 nM | 8730 nM | 514 nM | Cc1n[nH]c(C)c1-c1nc2ccc3[nH]ncc3c2c2c1CCCC2
1690 nM | 3260 nM | 44600 nM | 2420 nM | Cn1ncc2c3c4c(c(-c5c[nH]nc5C(F)(F)F)nc3ccc21)CCCC4
3 nM | 31 nM | 25100 nM | 76 nM | FC(F)(F)c1n[nH]cc1-c1nc2ccc3[nH]ncc3c2c2c1CCCCC2
109 nM | 190 nM | 9250 nM | 92 nM | FC(F)(F)c1n[nH]cc1-c1nc2ccc3[nH]ncc3c2c2c1COCC2
3840 nM | 1450 nM | 77500 nM | 1400 nM | CC(C)c1nn(C)cc1-c1nc2ccc3[nH]ncc3c2c2c1CCCC2
42 nM | 717 nM | 21100 nM | 687 nM | Cc1n[nH]cc1-c1nc2ccc3[nH]nc(C)c3c2c2c1CCCC2
2020 nM | 555 nM | 30800 nM | 880 nM | Cc1noc(C)c1-c1nc2ccc3[nH]ncc3c2c2c1CCCC2
3120 nM | 237 nM | 21900 nM | 2940 nM | Nc1ccc(-c2nc3ccc4[nH]ncc4c3c3c2CCCC3)cc1C(F)(F)F
132 nM | 180 nM | 9800 nM | 600 nM | c1[nH]nnc1-c1nc2ccc3[nH]ncc3c2c2c1CCCC2
90 nM | 72 nM | 3930 nM | 330 nM | c1n[nH]cc1-c1nc2ccc3[nH]ncc3c2c2c1CCCC2
7 nM | 17 nM | 3770 nM | 113 nM | Cc1n[nH]cc1-c1nc2c(F)cc3[nH]ncc3c2c2c1CCCC2
3660 nM | 1130 nM | 33800 nM | 1300 nM | Cn1cc(-c2nc3ccc4[nH]ncc4c3c3c2CCCC3)c(C2CC2)n1
549 nM | 556 nM | 10400 nM | 500 nM | Cn1cc(-c2nc3ccc4[nH]ncc4c3c3c2CCCC3)c(C(F)(F)F)n1

Source: ChEMBL document CHEMBL4834472 (J Med Chem, 2021)
